In one series the test system is PC3. The series can be described thus: Cell survival assay, PC3 (prostate) tumor cell line. The class given is cell-based. Conditions: Homo sapiens, PC-3; PC3 prostate tumor cells, 48 h exposure, survival by nuclei count; read-out: Cell lines IC50 PC3.
Another series has as its system NCI. Kind of series: Cell survival assay, NCI (lung) tumor cell line. It is filed as cell-based. Conditions: NCI lung tumor cells, 48 h exposure, survival by nuclei count; read-out: Cell lines IC50 NCI.
A further series relates to MDA-MB 231. The series can be described thus: Cell survival assay, MDA-MB 231 (breast) tumor cell line. The class given is cell-based. The conditions noted are these: Homo sapiens; MDA-MB 231 breast tumor cells, 48 h exposure, survival by nuclei count; read-out: Cell lines IC50 MDA-MB 231.
The subject of a further series is Caco2. The series can be described thus: Cell survival assay, Caco2 (colon) tumor cell line. The conditions noted are these: Homo sapiens, Caco-2; Caco2 colon tumor cells, 48 h exposure, survival by nuclei count; read-out: Cell lines IC50 Caco2. It is filed as cell-based. As to the method:
(§1) Skin diploid fibroblastic cells were provided by BIOPREDIC International Company (Rennes, France). Caco-2 cells and Huh7 cells were obtained from the ECAC collection. Cells were grown according to ECAC recommendations. The RLEC-F1 clone was derived from an established rat biliary epithelial cell line as previously described. The toxicity test of the compounds on these cells was as follows: 4 × 10^3 cells were seeded in 96 multiwell plates and left for 24 h for attachment, spreading, and growing. Then they were exposed for 48 h to increasing concentrations of the compounds, ranging from […] in a final volume of 80 μL of culture medium. They were then fixed with 4% paraform-aldehyde solution and the nuclei were stained with […] and counted using automated imaging analysis (Simple PCI software).

Series [1] has as its system Skin diploid fibroblastic cells. The series can be described thus: Cell survival assay, normal fibroblasts. The conditions noted are these: Fibroblast, 48 h exposure, survival by nuclei count, read-out: Cell lines IC50 Fibroblats. It is filed as cell-based. The protocol: as §1
For another series, the system named is Huh7. The series can be described thus: Cell survival assay, Huh7 (liver) tumor cell line. It is filed as cell-based. Conditions: Homo sapiens, Huh-7; Huh7 liver tumor cells, 48 h exposure, survival by nuclei count; read-out: Cell lines IC50 Huh7. The protocol:
as §1

The next series relates to HCT 116. Kind of series: Cell survival assay, HCT 116 (colon) tumor cell line. The class given is cell-based. The conditions noted are these: Homo sapiens; HCT 116 colon tumor cells, 48 h exposure, survival by nuclei count; read-out: Cell lines IC50 HCT 116.
Another series deals with T1, CDK5/p25 (Homo sapiens, UniProt Q00535).
T1 construct: made in house
T1 sequence (Q00535 whole entry): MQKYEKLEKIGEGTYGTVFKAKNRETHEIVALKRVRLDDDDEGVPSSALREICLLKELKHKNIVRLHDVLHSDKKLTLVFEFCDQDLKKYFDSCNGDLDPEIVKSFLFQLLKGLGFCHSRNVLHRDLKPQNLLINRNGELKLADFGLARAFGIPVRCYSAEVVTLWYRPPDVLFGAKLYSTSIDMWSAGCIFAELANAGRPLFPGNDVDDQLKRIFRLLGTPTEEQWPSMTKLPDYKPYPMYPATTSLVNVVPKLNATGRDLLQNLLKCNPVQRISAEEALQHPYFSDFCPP
T1 sequence (Q15078 99-307 partner limits assumed): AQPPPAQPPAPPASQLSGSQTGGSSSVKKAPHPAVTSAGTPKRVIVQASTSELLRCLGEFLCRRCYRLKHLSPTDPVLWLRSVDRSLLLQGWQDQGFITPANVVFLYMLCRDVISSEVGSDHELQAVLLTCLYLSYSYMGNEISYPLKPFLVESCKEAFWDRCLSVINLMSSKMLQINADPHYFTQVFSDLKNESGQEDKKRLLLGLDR
The series can be described thus: In vitro kinase inhibition assay CDK5/p25. It is filed as biochemical. The conditions noted are these: for IC50: 15 μM ATP, 30°C, buffer C, histone H1.

Another series deals with GSK-3α/β. Kind of series: In vitro kinase inhibition assay GSK3α/β. The conditions noted are these: for IC50: 15 μM ATP, 30°C, buffer A, GS-1 substrate. It is filed as biochemical, porcine.
The target in another series is DYRK1A (Homo sapiens, UniProt Q13627). Kind of series: In vitro kinase inhibition assay DYRK1A. It is filed as biochemical. Conditions: for IC50: 15 μM ATP, 30°C, buffer A, Woodtide substrate.
For the next series, the target named is CLK2. Kind of series: In vitro kinase inhibition assay CLK2. Conditions: for IC50: 15 μM ATP, 30°C, buffer A, RS peptide. The class given is biochemical, human.
The target in another series is CLK1 (Homo sapiens, UniProt P49759). Kind of series: In vitro kinase inhibition assay CLK1. Conditions: for IC50: 15 μM ATP, 30°C, buffer A, RS peptide. It is filed as biochemical.
CLK1, sequence (P49759 whole entry): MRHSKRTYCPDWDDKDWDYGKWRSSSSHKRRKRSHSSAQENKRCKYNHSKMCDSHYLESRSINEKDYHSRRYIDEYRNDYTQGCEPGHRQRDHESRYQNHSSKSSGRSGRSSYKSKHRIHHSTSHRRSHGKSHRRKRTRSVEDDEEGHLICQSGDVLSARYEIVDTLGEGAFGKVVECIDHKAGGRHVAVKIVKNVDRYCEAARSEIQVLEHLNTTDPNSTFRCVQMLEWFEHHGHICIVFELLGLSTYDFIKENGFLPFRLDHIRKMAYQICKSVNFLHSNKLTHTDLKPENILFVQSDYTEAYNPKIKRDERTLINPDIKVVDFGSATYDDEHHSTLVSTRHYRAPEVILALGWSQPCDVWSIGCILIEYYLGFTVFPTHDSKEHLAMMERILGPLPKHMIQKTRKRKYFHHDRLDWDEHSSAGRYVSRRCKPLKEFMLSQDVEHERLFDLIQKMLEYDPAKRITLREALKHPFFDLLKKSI
A further series deals with T2, DYRK2 (Homo sapiens, UniProt Q92630).
T2 sequence (Q92630 1-601): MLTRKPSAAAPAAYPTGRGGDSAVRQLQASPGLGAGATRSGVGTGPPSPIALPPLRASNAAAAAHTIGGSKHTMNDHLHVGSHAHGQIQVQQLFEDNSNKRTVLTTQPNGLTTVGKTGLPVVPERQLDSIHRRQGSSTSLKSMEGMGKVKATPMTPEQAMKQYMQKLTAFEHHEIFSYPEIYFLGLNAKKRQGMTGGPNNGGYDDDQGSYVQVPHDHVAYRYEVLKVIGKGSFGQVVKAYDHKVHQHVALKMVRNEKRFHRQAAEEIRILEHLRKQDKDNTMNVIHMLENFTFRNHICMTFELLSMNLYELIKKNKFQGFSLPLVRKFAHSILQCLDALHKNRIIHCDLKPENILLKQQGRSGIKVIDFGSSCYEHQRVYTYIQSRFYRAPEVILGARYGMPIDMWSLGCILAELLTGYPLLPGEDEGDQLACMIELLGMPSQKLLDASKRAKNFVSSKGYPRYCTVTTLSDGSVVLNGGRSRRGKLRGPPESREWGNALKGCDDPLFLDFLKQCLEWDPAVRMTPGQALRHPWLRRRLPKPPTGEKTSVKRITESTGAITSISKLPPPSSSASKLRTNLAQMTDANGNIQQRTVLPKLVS
Kind of series: In vitro kinase inhibition assay DYRK2. The conditions noted are these: for IC50: 15 μM ATP, 30°C, buffer A, Woodtide substrate. The class given is biochemical.

Method for CDK5/p25: (§2) Buffer A: 10 mM MgCl2, 1 mM EGTA, 1 mM DTT, 25 mM Tris-HCl pH 7.5, 50 μg heparin/ml. Buffer C: 60 mM ß-glycerophosphate, 15 mM p-nitrophenylphosphate, 25 mM Mops (pH 7.2), 5 mM EGTA, 15 mM MgCl2, 1 mM DTT, 1 mM sodium vanadate, 1 mM phenylphosphate. […] Blank values were subtracted and activities expressed in % of the maximal activity, i.e. in the absence of inhibitors. Controls were performed with appropriate dilutions of DMSO. The kinase peptide substrates were obtained from Millegen (Labege, France). […] ATP (3,000 Ci/mmol; 10 mCi/ml) in a final volume of 30 μl. After 30 min incubation at 30°C, the reaction was stopped by harvesting onto P81 phosphocellulose papers (Whatman) using a FilterMate harvester (Packard) and were washed in 1% phosphoric acid. Scintillation fluid was added and the radioactivity was measured in a Packard counter. CLK1 and CLK3 (human, recombinant, expressed in E. coli as GST fusion proteins) were assayed in buffer A (+ 0.15 mg BSA /ml) with RS peptide ([sequence]) (1μg/assay). […] Its kinase activity was assayed in buffer C, with 1 μg histone H1 /ml. GSK-3α/β (porcine brain, native) was assayed in Buffer A and using a GSK-3 specific substrate (GS-1: [sequence]pEDEEE) (pS stands for phosphorylated serine) [20].
Method for CLK1: as §2
Method for CLK2: Buffer A: 10 mM MgCl2, 1 mM EGTA, 1 mM DTT, 25 mM Tris-HCl pH 7.5, 50 μg heparin/ml. […] Blank values were subtracted and activities expressed in % of the maximal activity, i.e. in the absence of inhibitors. Controls were performed with appropriate dilutions of DMSO. The kinase peptide substrates were obtained from Millegen (Labege, France). […] ATP (3,000 Ci/mmol; 10 mCi/ml) in a final volume of 30 μl. After 30 min incubation at 30°C, the reaction was stopped by harvesting onto P81 phosphocellulose papers (Whatman) using a FilterMate harvester (Packard) and were washed in 1% phosphoric acid. Scintillation fluid was added and the radioactivity was measured in a Packard counter.
Method for DYRK1A: as §2
Method for GSK-3α/β: as §2

One may read the IC50 as the midpoint of a concentration-inhibition curve. What is called melting point is the temperature of the solid-liquid transition. For `O=C1N=C(N2CCN(C3=NC(=O)/C(=C/c4ccccc4)S3)CC2)S/C1=C\c1ccccc1` [Compound 5a, (5Z,5’Z)-2,2’-(Piperazine-1,4-diyl)bis(5-benzylidene-1,3-thiazol-4(5H)-one)], the melting point is over 260 °C. Besides, the half-maximal inhibitory concentration (IC50) in the series with PC3 is over 25 µM. The half-maximal inhibitory concentration (IC50) with NCI is over 25 µM. The IC50 with MDA-MB 231 was over 25 µM. Moreover, the IC50 in the series on Caco2 was 25 µM. For the same compound, the IC50 in series [1] was over 25 µM. Moreover, the half-inhibitory concentration (IC50) in the series with Huh7 was over 25 µM. In the series with HCT 116, the half-maximal inhibitory concentration (IC50) is over 25 µM.
`O=C(O)CCN1C(=O)/C(=C/c2ccccc2)SC1=S` [Compound 3d, 3-[(5Z)-5-Benzylidene-4-oxo-2-thioxo-1,3-thiazolidin-3-yl]propanoic acid] displayed a melting point of 224 to 226 °C.
In the case of `O=C1NC(=S)S/C1=C\c1ccc2c(c1)OCO2` [Compound 3c, (5Z)-5-(1,3-Benzodioxol-5-ylmethylidene)-2-thioxo-1,3-thiazolidin-4-one], the concentration for half-maximal inhibition (IC50) is over 25 µM in the series on PC3; over 10 µM on CDK5/p25; over 25 µM with NCI; over 25 µM with MDA-MB 231; 8.5 µM against GSK-3α/β; over 25 µM in the series with Caco2. Moreover, the IC50 against DYRK1A was 0.07 µM; in series [1], over 25 µM; with Huh7, over 25 µM; in the series on HCT 116, over 25 µM.
Turning to `COc1ccc(/C=C2\SC(NCCCN3CCN(CCCNC4=NC(=O)/C(=C/c5ccc(OC)cc5)S4)CC3)=NC2=O)cc1` [Compound 5d, (5Z,5’Z)-2,2’-[Piperazine-1,4-diylbis(propane-3,1-diylimino)]bis[5-(4-methoxybenzylidene)-1,3-thiazol-4(5H)-one]], the melting point is 220 to 222 °C. The compound further had an IC50 against CDK5/p25 of over 10 µM. The half-inhibitory concentration (IC50) at CLK2 turned out to be 7.7 µM. At CLK1, inhibition was half-maximal at 0.5 µM (IC50). On GSK-3α/β, this compound displayed an IC50 of over 10 µM. On DYRK1A, the “Activity towards DYRK1A (in words)” value is listed as “nanomolar inhibition potency” and the half-maximal inhibitory concentration (IC50) is 0.041 µM. The compound also registered a concentration for half-maximal inhibition (IC50) against DYRK2 of 0.6 µM.
Turning to `O=C1N=C(N2CCN(C3=NC(=O)/C(=C/c4ccc5c(c4)OCO5)S3)CC2)S/C1=C\c1ccc2c(c1)OCO2` [Compound 5c, (5Z,5’Z)-2,2’-(Piperazine-1,4-diyl)bis[5-(1,3-benzodioxol-5-ylmethylene)-1,3-thiazol-4(5H)-one]], the 50% inhibitory concentration (IC50) is 40 µM with PC3; over 25 µM with NCI; over 25 µM in the series with MDA-MB 231; 20 µM in the series on Caco2; 40 µM in series [1]; over 25 µM in the series with Huh7. In the series on HCT 116, the IC50 was over 25 µM.
Turning to `COc1ccc(/C=C2\SC(=S)NC2=O)cc1` [Compound 3b, (5Z)-5-(4-Methoxybenzylidene)-2-thioxo-1,3-thiazolidin-4-one], the half-inhibitory concentration (IC50) is over 25 µM with PC3; over 10 µM against CDK5/p25; over 10 µM against CLK2; over 25 µM in the series with NCI; over 25 µM in the series with MDA-MB 231; over 10 µM at CLK1. For the same compound, the IC50 against GSK-3α/β is over 10 µM; in the series with Caco2 it was over 25 µM; against DYRK1A, over 10 µM; in [1], over 25 µM; in the series on Huh7, over 25 µM; with HCT 116, over 25 µM. Besides, the IC50 at DYRK2 is over 10 µM. Also, on CDK5/p25, the “Activity towards CDK5/p25 (in words)” value was “inactive”. Also, in the series with CLK2, the “Activity towards CLK2 (in words)” value was “inactive”. Also, the “Activity towards CLK1 (in words)” value on CLK1 is “inactive”. The “Activity towards GSK3α/β (in words)” value with GSK-3α/β is “inactive”. On DYRK1A, the “Activity towards DYRK1A (in words)” value was “inactive”. Also, the “Activity towards DYRK2 (in words)” value at DYRK2 was “inactive”.
Consider `O=C(O)CCN1C(=O)/C(=C/c2ccc3c(c2)OCCO3)SC1=S` [Compound 3g, 3-[(5Z)-5-(2,3-Dihydro-1,4-benzodioxin-6-ylmethylidene)-4-oxo-2-thioxo-1,3-thiazolidin-3-yl]propanoic acid], for which the melting point lay in the range of 226 to 228 °C.
The same measure, in the same setting: to `COc1ccc(/C=C2\SC(N3CCN(C4=NC(=O)/C(=C/c5ccc(OC)cc5)S4)CC3)=NC2=O)cc1` [Compound 5b, (5Z,5’Z)-2,2’-(Piperazine-1,4-diyl)bis[5-(4-methoxybenzylidene)-1,3-thiazol-4(5H)-one]] belongs over 260 °C; to `O=C1N=C(NCCCN2CCN(CCCNC3=NC(=O)/C(=C/c4ccc5c(c4)OCO5)S3)CC2)S/C1=C\c1ccc2c(c1)OCO2` [Compound 5e, (5Z,5’Z)-2,2’-[Piperazine-1,4-diylbis(propane-3,1-diylimino)]bis[5-(1,3-benzodioxol-5-ylmethylene)-1,3-thiazol-4(5H)-one]], 222 to 224 °C.

(Values after publication PMC3528043, “Synthesis of New N,N’-Bis(5-arylidene-4-oxo-4,5-dihydrothiazolin-2-yl)piperazine Derivatives Under Microwave Irradiation and Preliminary Biological Evaluation” (Scientia Pharmaceutica, 2012).)
